Experimental data published in ChEMBL document CHEMBL6182942, “Discovery of a Selective, Novel TGF-βR1 Inhibitor GFH018 for the Treatment of Solid Tumors” (J Med Chem, 2025).
≈ marks a conversion by molar mass, not a printed value. Calls of active or inactive are those of the source. The calls are words filed in the database; no cut-off is given here.

Assays:
[1] = Volume of distribution at steady state in Beagle dog at 1 mg/kg, iv by LC-MS/MS analysis; assay type: ADME, organism-based, Canis lupus familiaris; conditions: in vivo, read-out: Vdss
[2] = Tmax in mouse H22 cell implanted BALB/c mouse at 15 to 50 mg/kg, po administered twice daily for 11 days; assay type: ADME, organism-based; conditions: in vivo, dose 15-50 mg/kg, time 11 day
[3] = Drug metabolism in dog liver microsomes; assay type: ADME, Canis lupus familiaris, Microsome
[4] = Drug metabolism in dog hepatocytes; assay type: ADME, cell-based, Canis lupus familiaris, Hepatocyte
[5] = system: CD14-positive cell; test: Immunostimulatory activity in human PBMC derived M-CSF stimulated CD14-positive cells assessed as reduction in IL-10 level at 0.1 to 10 uM supplemented with fresh medium containing compound on day 1, 3 and 5 followed by M-CSF/IL-4/IL-13 stimulation for 2 days with subsequent LPS induction and measured after 16 hrs; assay type: functional, cell-based; conditions: dose 0.1-10 µM, time 7.0 day
[6] = Half life in Sprague-Dawley rat at 1 mg/kg, iv by LC-MS/MS analysis; assay type: ADME, organism-based; conditions: in vivo
[7] = Intrinsic clearance in cynomolgus monkey hepatocytes at 1 uM measured after 90 mins by LC-MS/MS analysis; assay type: ADME, cell-based, Macaca fascicularis, Hepatocyte; conditions: read-out: CLH
[8] = system: CD14-positive cell; test: Immunostimulatory activity in human PBMC derived M-CSF stimulated CD14-positive cells assessed as increase in IL-6 level at 0.1 to 10 uM supplemented with fresh medium containing compound on day 1, 3 and 5 followed by M-CSF/IL-4/IL-13 stimulation for 2 days with subsequent LPS induction and measured after 16 hrs; assay type: functional, cell-based; conditions: dose 0.1-10 µM, time 7.0 day
[9] = Kinetic solubility of the compound in pH 7.4 aqueous buffer; assay type: physicochemical; conditions: read-out: Kinetic_solubility
[10] = Half life in Sprague-Dawley rat at 30 mg/kg, po administered via gavage by LC-MS/MS analysis; assay type: ADME, organism-based; conditions: in vivo
[11] = system: HUVEC; test: Antiangiogenesis activity in HUVEC assessed as inhibition of vascular structure formation measured after 6 hrs by matrigel based inverted fluorescence microscopy; assay type: functional, cell-based; conditions: Homo sapiens, dose 0.1-10 µM
[12] = system: CD14-positive cell; test: Immunostimulatory activity in human PBMC derived M-CSF stimulated CD14-positive cells assessed as effect on M2 macrophage polarization at 0.01 to 10 uM supplemented with fresh medium containing compound on day 1, 3 and 5 followed by M-CSF/IL-4/IL-13 stimulation; assay type: functional, cell-based; conditions: dose 0.01-10 µM, time 5.0 day
[13] = Clearance in Beagle dog at 1 mg/kg, iv by LC-MS/MS analysis; assay type: ADME, organism-based, Canis lupus familiaris; conditions: in vivo
[14] = system: H22; test: Antitumor activity against mouse H22 cells implanted in BALB/c mouse assessed as tumor growth inhibition at 50 mg/kg, po administered twice daily for 11 days and measured 3 times per week during compound dosing relative to control; assay type: functional; conditions: H22, 264 h, time 11 day, read-out: TGI
[15] = target: Cytochrome P450 2B6 (Homo sapiens, UniProt P20813); test: Inhibition of CYP2B6 in human liver microsomes using bupropion as substrate preincubated for 10 mins followed by NADPH regeneration system addition and measured after 10 mins by LC-MS/MS analysis; assay type: ADME, Microsome
Sequence of Cytochrome P450 2B6 (P20813 whole entry): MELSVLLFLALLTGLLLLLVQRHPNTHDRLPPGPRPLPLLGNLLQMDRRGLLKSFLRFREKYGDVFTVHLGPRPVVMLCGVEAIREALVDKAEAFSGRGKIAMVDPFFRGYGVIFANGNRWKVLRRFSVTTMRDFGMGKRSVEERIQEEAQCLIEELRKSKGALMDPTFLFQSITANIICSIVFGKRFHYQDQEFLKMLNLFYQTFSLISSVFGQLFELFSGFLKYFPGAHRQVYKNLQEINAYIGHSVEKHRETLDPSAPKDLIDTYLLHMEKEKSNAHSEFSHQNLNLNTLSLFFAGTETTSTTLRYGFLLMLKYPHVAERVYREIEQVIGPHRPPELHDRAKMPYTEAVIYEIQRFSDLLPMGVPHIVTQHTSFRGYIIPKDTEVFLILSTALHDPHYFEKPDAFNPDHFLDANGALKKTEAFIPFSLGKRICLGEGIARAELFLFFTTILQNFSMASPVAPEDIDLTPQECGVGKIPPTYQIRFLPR

[16] = AUC (0 to last) in Sprague-Dawley rat at 30 mg/kg, po administered via gavage by LC-MS/MS analysis; assay type: ADME, organism-based; conditions: in vivo
[17] = Drug metabolism in rat liver microsomes; assay type: ADME, Microsome
[18] = system: 4T1-Luc; test: Antimetastatic activity against mouse 4T1-Luc cells implanted in BALB/c mouse assessed as reduction in metastatic rate in lung at 100 mg/kg, po administered daily for 32 days and measured on day 30 to 35 by IVIS fluorescence analysis; assay type: functional, organism-based; conditions: time 35.0 day
[19] = system: 4T1-Luc; test: Antimetastatic activity against mouse 4T1-Luc cells implanted in BALB/c mouse assessed as reduction in metastatic rate in forelimb at 100 mg/kg, po administered daily for 32 days and measured on day 30 to 35 by IVIS fluorescence analysis; assay type: functional, organism-based; conditions: time 35.0 day
[20] = target: Cytochrome P450 3A4 (Homo sapiens, UniProt P08684); test: Inhibition of CYP3A4 in human liver microsomes using midazolam as substrate preincubated for 10 mins followed by NADPH regeneration system addition and measured after 3 mins by LC-MS/MS analysis; assay type: ADME, Microsome
Sequence of Cytochrome P450 3A4 (P08684 whole entry): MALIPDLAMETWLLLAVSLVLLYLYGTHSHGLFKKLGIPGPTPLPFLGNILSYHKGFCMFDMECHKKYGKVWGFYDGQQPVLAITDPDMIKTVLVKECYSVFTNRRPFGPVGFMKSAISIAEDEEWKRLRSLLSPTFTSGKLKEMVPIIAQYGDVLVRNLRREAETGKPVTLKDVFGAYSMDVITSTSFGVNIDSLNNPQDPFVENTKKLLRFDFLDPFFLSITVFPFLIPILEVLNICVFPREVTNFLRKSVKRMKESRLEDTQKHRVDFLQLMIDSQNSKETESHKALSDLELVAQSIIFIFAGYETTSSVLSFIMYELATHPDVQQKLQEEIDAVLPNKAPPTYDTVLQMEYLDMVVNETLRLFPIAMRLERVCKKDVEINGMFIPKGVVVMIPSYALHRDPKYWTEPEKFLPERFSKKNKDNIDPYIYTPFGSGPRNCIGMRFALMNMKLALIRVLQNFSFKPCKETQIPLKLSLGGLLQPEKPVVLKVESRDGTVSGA

[21] = Toxicity in mouse CT26 cell implanted BALB/c mouse assessed as change in body weight at 50 mg/kg, po administered twice daily in presence of antimouse-PD-L1 antibody; assay type: organism-based; conditions: in vivo
[22] = target: Activin receptor type-1B (Homo sapiens) (UniProt P36896); test: Inhibition of ALK4 (unknown origin) assessed as residual activity at 1 uM relative to control
Sequence of Activin receptor type-1B (Homo sapiens) (P36896 whole entry): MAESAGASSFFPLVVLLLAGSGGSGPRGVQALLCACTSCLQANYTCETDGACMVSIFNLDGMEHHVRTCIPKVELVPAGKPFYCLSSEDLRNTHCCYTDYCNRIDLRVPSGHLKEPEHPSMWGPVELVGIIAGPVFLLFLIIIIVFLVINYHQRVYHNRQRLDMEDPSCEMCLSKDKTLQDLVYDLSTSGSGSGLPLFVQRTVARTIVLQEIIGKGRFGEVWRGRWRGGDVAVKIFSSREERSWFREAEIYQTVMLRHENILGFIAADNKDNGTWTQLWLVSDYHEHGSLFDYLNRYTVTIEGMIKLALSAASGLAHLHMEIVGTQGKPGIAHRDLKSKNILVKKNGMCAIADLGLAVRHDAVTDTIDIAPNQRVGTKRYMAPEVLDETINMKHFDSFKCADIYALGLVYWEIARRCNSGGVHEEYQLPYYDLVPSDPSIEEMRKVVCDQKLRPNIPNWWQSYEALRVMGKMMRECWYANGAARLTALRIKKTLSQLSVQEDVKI

[23] = target: TRAF2 and NCK-interacting protein kinase (Homo sapiens) (UniProt Q9UKE5); test: Inhibition of TNIK (unknown origin) assessed as residual activity at 1 uM relative to control
Sequence of TRAF2 and NCK-interacting protein kinase (Homo sapiens) (Q9UKE5 whole entry, looked up): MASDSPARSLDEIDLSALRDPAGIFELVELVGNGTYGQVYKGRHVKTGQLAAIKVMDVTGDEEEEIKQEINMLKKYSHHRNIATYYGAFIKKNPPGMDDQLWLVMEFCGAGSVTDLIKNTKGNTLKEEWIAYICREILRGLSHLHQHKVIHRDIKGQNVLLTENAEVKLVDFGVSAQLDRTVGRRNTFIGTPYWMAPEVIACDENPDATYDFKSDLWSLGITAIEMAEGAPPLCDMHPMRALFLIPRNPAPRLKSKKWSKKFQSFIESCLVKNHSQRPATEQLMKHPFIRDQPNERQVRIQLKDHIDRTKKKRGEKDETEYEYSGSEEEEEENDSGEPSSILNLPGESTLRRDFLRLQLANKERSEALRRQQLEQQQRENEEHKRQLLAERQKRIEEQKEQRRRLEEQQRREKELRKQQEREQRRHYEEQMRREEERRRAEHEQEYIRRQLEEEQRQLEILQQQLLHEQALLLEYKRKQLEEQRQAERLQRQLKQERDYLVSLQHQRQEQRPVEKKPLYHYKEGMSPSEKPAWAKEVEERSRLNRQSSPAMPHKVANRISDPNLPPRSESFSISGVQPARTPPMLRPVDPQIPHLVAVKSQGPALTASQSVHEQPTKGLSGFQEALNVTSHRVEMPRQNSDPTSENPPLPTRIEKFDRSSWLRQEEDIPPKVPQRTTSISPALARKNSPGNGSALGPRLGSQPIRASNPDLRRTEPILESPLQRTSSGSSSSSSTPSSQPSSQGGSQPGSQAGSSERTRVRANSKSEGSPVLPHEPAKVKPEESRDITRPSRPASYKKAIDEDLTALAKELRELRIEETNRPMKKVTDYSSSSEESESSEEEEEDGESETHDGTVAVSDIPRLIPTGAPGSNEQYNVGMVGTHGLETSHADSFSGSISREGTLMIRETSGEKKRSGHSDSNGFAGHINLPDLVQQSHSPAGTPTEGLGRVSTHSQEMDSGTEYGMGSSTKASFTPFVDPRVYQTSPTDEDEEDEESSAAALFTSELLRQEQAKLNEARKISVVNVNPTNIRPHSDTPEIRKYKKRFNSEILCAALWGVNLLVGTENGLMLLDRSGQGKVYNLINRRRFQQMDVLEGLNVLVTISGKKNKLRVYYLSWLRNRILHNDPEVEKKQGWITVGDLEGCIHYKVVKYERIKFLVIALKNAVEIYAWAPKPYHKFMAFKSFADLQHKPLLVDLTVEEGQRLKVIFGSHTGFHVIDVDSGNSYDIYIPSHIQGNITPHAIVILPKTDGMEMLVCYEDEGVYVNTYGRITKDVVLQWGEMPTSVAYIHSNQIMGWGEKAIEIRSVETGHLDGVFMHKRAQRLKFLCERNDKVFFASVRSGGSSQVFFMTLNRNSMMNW

[24] = system: 4T1-Luc; test: Antimetastatic activity against mouse 4T1-Luc cells implanted in BALB/c mouse assessed as reduction in metastatic rate in intestine at 100 mg/kg, po administered daily for 32 days and measured on day 30 to 35 by IVIS fluorescence analysis; assay type: functional, organism-based; conditions: time 35.0 day
[25] = target: Cytochrome P450 2C19 (Homo sapiens, UniProt P33261); test: Inhibition of CYP2C19 in human liver microsomes using (S)-mephenytoin as substrate preincubated for 10 mins followed by NADPH regeneration system addition and measured after 20 mins by LC-MS/MS analysis; assay type: ADME, Microsome
Sequence of Cytochrome P450 2C19 (P33261 whole entry): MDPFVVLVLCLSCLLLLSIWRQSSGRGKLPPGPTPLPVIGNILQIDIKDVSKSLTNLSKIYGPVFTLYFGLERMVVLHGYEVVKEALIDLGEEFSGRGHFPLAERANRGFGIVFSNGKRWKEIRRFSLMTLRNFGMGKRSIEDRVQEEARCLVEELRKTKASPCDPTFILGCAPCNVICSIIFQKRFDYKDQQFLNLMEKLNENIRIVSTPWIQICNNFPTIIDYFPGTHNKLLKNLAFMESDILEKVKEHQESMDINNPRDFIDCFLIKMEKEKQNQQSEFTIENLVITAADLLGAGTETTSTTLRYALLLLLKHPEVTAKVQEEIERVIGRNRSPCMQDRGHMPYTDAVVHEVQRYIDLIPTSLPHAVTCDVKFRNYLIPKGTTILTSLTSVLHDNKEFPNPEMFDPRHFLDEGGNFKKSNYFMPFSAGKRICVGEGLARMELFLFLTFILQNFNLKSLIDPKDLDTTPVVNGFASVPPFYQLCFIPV

[26] = Mutagenicity in Salmonella typhimurium TA98 in presence of liver S9 fraction by Ames test; assay type: toxicity, subcellular; conditions: salmonella enterica subsp. enterica serovar typhimurium
[27] = Mutagenicity in Salmonella typhimurium TA100 by Ames test; assay type: toxicity; conditions: salmonella enterica subsp. enterica serovar typhimurium
[28] = AUC (0 to last) in Sprague-Dawley rat at 1 mg/kg, iv by LC-MS/MS analysis; assay type: ADME, organism-based; conditions: in vivo
[29] = Protein binding in Sprague-Dawley rat plasma at 0.2 to 10 uM measured after 4 hrs by equilibrium dialysis based LC-MS/MS analysis; assay type: ADME, cell-free; conditions: dose 0.2-10 µM, read-out: PPB (converted)
[30] = Metabolic stability in human liver microsomes assessed as parent compound remaining at 1 uM preincubated for 5 mins followed by NADPH addition by LC-MS/MS analysis; assay type: ADME, Microsome; conditions: read-out: Stability
[31] = Intrinsic clearance in dog hepatocytes at 1 uM measured after 90 mins by LC-MS/MS analysis; assay type: ADME, cell-based, Canis lupus familiaris, Hepatocyte; conditions: read-out: CLH
[32] = system: 4T1-Luc; test: Antimetastatic activity against mouse 4T1-Luc cells implanted in BALB/c mouse assessed as reduction in metastatic rate in kidney at 100 mg/kg, po administered daily for 32 days and measured on day 30 to 35 by IVIS fluorescence analysis; assay type: functional, organism-based; conditions: time 35.0 day
[33] = target: Cytochrome P450 2C9 (Homo sapiens, UniProt P11712); test: Inhibition of CYP2C9 in human liver microsomes using diclofenac as substrate preincubated for 10 mins followed by NADPH regeneration system addition and measured after 10 mins by LC-MS/MS analysis; assay type: ADME, Microsome
Sequence of Cytochrome P450 2C9 (P11712 whole entry): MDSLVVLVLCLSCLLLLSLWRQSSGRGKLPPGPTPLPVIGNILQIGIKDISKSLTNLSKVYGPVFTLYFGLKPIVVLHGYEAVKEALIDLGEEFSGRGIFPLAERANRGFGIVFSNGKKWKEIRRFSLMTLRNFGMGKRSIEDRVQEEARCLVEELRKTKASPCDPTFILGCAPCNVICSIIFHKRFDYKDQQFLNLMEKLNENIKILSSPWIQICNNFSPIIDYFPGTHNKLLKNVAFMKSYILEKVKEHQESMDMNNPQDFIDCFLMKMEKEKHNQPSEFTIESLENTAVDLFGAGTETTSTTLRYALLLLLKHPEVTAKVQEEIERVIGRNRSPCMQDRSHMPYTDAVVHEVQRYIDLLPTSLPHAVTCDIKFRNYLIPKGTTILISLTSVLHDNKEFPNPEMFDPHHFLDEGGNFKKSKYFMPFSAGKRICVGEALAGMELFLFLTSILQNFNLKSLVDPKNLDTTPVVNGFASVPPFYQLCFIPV

[34] = target: Cytochrome P450 2C8 (Homo sapiens, UniProt P10632); test: Inhibition of CYP2C8 in human liver microsomes using amodiaquine as substrate preincubated for 10 mins followed by NADPH regeneration system addition and measured after 10 mins by LC-MS/MS analysis; assay type: ADME, Microsome
Sequence of Cytochrome P450 2C8 (P10632 whole entry): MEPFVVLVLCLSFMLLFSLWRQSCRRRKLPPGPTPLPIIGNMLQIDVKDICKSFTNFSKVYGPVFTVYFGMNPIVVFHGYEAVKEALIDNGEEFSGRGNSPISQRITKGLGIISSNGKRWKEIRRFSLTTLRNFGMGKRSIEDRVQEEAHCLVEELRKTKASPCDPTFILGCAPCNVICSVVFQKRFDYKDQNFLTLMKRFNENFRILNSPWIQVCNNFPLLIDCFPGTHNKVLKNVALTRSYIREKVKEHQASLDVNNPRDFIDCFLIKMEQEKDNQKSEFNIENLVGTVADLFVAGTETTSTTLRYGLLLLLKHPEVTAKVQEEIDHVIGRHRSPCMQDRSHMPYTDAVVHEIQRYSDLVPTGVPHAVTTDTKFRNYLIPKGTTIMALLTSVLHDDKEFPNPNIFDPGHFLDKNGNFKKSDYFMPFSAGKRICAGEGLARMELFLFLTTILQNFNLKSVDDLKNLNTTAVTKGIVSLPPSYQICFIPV

[35] = Oral bioavailability in CD-1 mouse at 5 mg/kg via gavage by LC-MS/MS analysis; assay type: ADME, organism-based; conditions: in vivo
[36] = system: NIH3T3; test: Antiproliferative activity against mouse NIH/3T3 cells by celltitter-glo assay; assay type: functional, cell-based

Which results are given for `Cc1cccc(-c2nn3c(c2-c2ccc4ncnn4c2/C=C/C(N)=O)CCC3)n1`?
Vd [1]: 0.961 L/kg; Tmax [2]: 1 h; Drug metabolism [3]: metabolite_detected; Drug metabolism [4]: metabolite_detected; Activity [5]: Active; half-life [6]: 52.2 min; CLint scaled at […], 1 µM [7]: 19.3 mL/min/kg; Activity [8]: Active; solubility kinetic [9]: 185 µM (≈ 71.5 µg/mL); half-life [10]: 121 min; inhibition [11]: Dose-dependent-effect; Activity [12]: inactive; clearance [13]: 9.29 mL/min/kg; inhibition in vivo at 50 mg/kg [14]: 57.5%; IC50 [15]: > 100 µM; AUClast [16]: 9614 nM.hr/ml; Drug metabolism [17]: metabolite_detected; Activity [18]: Active; Activity [19]: Active; IC50 [20]: > 100 µM; Activity [21]: Non-toxic; Activity [22]: < 50%; Activity [23]: < 50%; Activity [24]: Active; IC50 [25]: > 100 µM; Activity [26]: Non-toxic; Activity [27]: Non-toxic; AUClast [28]: 1332 nM.hr/ml; fraction unbound at 4 h, up to 10 µM [29]: 0.376; remaining at 1 µM [30]: 87.5%; CLint scaled at […], 1 µM [31]: < 17.1 mL/min/kg; Activity [32]: Active; IC50 [33]: > 100 µM; IC50 [34]: > 100 µM; bioavailability [35]: 8.74%; IC50 [36]: 730 nM
